The results in this text go back to US9199945B2, “Cycloalkyl-substituted pyrimidinedione compounds” (MyoKardia, Inc., priority 2013, dated 2015).

The structures appear in SMILES notation.

As usually defined, the inhibition is the drop in the measured response relative to a control, in per cent. Higher therefore signals a response far below the control.

For the first test, the target named is T1, bovine cardiac myosin (Bos taurus, UniProt Q9BE39).
T1 construct: The source of cardiac myosin was from bovine heart in the form of skinned myofibrils; from tissue; host or cells: bovine heart (skinned myofibrils)
T1 sequence (Q9BE39 whole entry): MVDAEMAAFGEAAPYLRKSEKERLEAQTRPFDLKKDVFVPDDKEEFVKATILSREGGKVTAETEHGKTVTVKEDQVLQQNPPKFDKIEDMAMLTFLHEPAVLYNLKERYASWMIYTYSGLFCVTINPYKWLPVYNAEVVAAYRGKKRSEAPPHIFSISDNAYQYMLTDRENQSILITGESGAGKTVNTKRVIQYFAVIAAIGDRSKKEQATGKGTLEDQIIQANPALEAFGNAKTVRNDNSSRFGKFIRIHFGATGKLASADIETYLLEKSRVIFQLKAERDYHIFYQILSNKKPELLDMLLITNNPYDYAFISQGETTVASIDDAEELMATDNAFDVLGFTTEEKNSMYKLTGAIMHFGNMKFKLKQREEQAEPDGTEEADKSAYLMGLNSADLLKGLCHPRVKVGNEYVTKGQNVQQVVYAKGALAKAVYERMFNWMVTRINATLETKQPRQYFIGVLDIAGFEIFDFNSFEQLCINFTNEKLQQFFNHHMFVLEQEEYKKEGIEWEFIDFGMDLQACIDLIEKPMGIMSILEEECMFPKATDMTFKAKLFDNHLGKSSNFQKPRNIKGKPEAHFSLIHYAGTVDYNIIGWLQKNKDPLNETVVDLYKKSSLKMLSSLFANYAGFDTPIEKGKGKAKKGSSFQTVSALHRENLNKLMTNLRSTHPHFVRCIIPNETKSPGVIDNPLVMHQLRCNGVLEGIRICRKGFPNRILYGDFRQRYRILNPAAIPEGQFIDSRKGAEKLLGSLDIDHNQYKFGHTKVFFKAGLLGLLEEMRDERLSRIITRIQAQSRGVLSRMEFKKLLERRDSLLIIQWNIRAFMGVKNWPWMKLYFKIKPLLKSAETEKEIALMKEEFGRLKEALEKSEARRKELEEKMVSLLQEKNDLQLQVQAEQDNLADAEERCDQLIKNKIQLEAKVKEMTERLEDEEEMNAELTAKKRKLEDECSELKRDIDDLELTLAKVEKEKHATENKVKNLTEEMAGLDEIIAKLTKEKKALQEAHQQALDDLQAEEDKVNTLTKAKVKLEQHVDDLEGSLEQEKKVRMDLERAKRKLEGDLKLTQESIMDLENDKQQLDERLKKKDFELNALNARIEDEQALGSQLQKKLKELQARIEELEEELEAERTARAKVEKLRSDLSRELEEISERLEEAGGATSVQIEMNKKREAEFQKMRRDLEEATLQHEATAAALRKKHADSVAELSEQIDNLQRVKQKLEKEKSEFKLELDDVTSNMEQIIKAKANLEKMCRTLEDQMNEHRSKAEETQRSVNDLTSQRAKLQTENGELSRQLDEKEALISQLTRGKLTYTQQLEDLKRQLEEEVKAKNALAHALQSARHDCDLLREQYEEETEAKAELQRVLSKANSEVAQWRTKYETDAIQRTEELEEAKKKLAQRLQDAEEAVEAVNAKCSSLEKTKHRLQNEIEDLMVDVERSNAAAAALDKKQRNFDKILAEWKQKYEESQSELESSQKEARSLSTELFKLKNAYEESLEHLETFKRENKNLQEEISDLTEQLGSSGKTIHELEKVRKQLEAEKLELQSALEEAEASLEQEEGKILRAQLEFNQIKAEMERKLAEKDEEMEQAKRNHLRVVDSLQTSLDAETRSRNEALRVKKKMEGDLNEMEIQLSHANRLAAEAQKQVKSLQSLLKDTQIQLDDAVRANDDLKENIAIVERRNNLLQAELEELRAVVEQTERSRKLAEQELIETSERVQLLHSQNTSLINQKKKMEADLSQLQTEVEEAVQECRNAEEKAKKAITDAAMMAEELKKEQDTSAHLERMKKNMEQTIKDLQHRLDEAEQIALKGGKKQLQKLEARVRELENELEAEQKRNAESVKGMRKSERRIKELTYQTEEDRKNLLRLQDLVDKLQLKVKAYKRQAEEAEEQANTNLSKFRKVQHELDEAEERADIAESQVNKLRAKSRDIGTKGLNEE
T1 sequence (P85100 whole entry partner): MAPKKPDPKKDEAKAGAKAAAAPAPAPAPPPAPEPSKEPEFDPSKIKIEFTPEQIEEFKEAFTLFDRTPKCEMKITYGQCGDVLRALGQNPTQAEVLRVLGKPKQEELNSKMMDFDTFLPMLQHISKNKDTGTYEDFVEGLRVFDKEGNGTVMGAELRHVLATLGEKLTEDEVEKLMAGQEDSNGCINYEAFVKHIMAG
T1 sequence (Q3SZE5 whole entry partner): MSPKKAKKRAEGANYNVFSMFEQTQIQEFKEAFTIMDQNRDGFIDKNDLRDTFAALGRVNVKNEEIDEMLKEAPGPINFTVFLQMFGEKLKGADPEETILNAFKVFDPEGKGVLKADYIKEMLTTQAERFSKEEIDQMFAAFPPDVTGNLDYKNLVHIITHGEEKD
Put plainly: Myosin inhibition assay (PK/LDH-coupled ATPase, bovine cardiac myofibrils). In kind it is biochemical. The settings on record: calcium concentration giving 50% activation (pCa50), read-out: Biochemical Activity (pCa50). As to the method: Small molecule agents were assessed for their ability to inhibit the enzymatic activity of bovine cardiac myosin using a biochemical assay that couples the release of ADP (adenosine diphosphate) from cardiac myosin to an enzymatic coupling system consisting of pyruvate kinase and lactate dehydrogenase (PK/LDH) and monitoring the absorbance decrease of NADH (at 340 nm) as a function of time. PK converts ADP to ATP (adenosine triphosphate) by converting PEP (phosphoenolpyruvate) to pyruvate. Pyruvate is then converted to lactate by LDH by converting NADH (nicotinamide adenine dinucleotide) to NAD (oxidized nicotinamide adenine dinucleotide). The source of cardiac myosin was from bovine heart in the form of skinned myofibrils. Prior to testing small molecule agents, the bovine myofibrils were assessed for their calcium responsiveness and the calcium concentration that achieves either a 50% (pCa50) or 75% (pCa75) activation of the myofibril system was chosen as the final condition for assessing the inhibitory activity of the small molecule agents. All enzymatic activity was measured in a buffered solution containing 12 mM PIPES (piperazine-N,N′-bis(2-ethanesulfonic acid), 2 mM magnesium chloride at pH 6.8 (PM12 buffer). Final assay conditions were 1 mg/mL of bovine cardiac myofibrils, 0.4 mM PK/LDH, 50 uM ATP, 0.1 mg/mL BSA (bovine serum albumin), 10 ppm antifoam, 1 mM DTT, 0.5 mM NADH, 1.5 mM PEP at the desired free calcium concentration required to achieve either 50% or 75% activation of the myofibrils.
A dilution series of compound was created in DMSO such that the final desired concentration of compound would be achieved in a volume of 100 μL with a fixed DMSO concentration of 2% (v/v). Typically 2 μL of the dilution series were added to 96 well plate to achieve an 8 or 12 point dose response. Following the addition of 50 μL of a solution containing bovine cardiac myofibrils, PK/LDH and a solution of calcium (that achieved the desired activation), the enzymatic reaction was started with the addition of 50 μL of a solution containing ATP, PEP and NADH. The reaction progress was followed in a Molecular Devices M5e plate reader at ambient temperature using clear half area plates. The plate reader was configured to read absorbance at 340 nm in kinetics mode for 15 minutes. Data were recorded as the slope of the absorbance response to time. The slopes of the absorbance response as a function of time were normalized to slopes on the plate containing DMSO. This normalized rate was then plotted as a function of small molecule concentration and the data was fitted to a four-parameter fit using GraphPad Prism. The midpoint of this plot is the IC50 and is the concentration at which fifty percent of the total response is inhibited.
For `C[C@@H](CC1CCC(F)(F)CC1)Nc1cc(=O)n(-c2cc(F)cc(F)c2)c(=O)[nH]1` [Compound 11, (S)-6-((1-(4,4-difluorocyclohexyl)propan-2-yl)amino)-3-(3,5-difluorophenyl)pyrimidine-2,4(1H,3H)-dione], the IC50 was less than 1000 nM.
In the case of `C[C@@H](CC1CC(F)(F)C1)Nc1cc(=O)n(-c2cc(F)cc(F)c2)c(=O)[nH]1` [Compound 12, (S)-6-((1-(3,3-difluorocyclobutyl)propan-2-yl)amino)-3-(3,5-difluorophenyl)pyrimidine-2,4(1H,3H)-dione], the IC50 fell in the range of 1000 to 15000 nM.

Still in this test, the particulars now being: calcium concentration giving 75% activation (pCa75), read-out: Biochemical Activity (pCa75).
In the case of `CC(C)n1c(=O)cc(N[C@@H](C)C2CCC(F)(F)CC2)[nH]c1=O` [Compound 9, (S)-6-((1-(4,4-difluorocyclohexyl)ethyl)amino)-3-isopropylpyrimidine-2,4(1H,3H)-dione], the IC50 was less than 1000 nM.
On the same count and under the same terms, for `CC(C)n1c(=O)cc(NCC2CCC2)[nH]c1=O` [Compound 7, 6-((cyclobutylmethyl)amino)-3-isopropylpyrimidine-2,4(1H,3H)-dione] the value was greater than 15000 nM; for `C[C@H](Nc1cc(=O)n(C2CCN(S(C)(=O)=O)CC2)c(=O)[nH]1)C1CCCCC1` [Compound 15, (S)-6-((1-cyclohexylethyl)amino)-3-(1-(methylsulfonyl)piperidin-4-yl)pyrimidine-2,4(1H,3H)-dione], less than 1000 nM; for `CC(C)n1c(=O)cc(NCC2CCCC2)[nH]c1=O` [Compound 2, 6-((Cyclopentylmethyl)amino)-3-isopropylpyrimidine-2,4(1H,3H)-dione], greater than 15000 nM.
`CC(C)n1c(=O)cc(NCC2CCCCCC2)[nH]c1=O` [Compound 8, 6-((cycloheptylmethyl)amino)-3-isopropylpyrimidine-2,4(1H,3H)-dione]: the IC50 was less than 1000 nM.
The same measure, in the same setting: as for `CC(C)n1c(=O)cc(N[C@@H](C)CC2CC(F)(F)C2)[nH]c1=O` [Compound 10, (S)-6-((1-(3,3-difluorocyclobutyl)propan-2-yl)amino)-3-isopropylpyrimidine-2,4(1H,3H)-dione], the figure is 1000 to 15000 nM; as for `CC(C)n1c(=O)[nH]c(N[C@@H](C)C2CCC(F)(F)CC2)c(F)c1=O` [Compound 5, (S)-6-((1-(4,4-difluorocyclohexyl)ethyl)amino)-5-fluoro-3-isopropylpyrimidine-2,4(1H,3H)-dione], less than 1000 nM.
Still for that read-out and setting: as for `CC(C)n1c(=O)cc(N[C@@H](C)CC2CCOCC2)[nH]c1=O` [Compound 14, (S)-3-isopropyl-6-((1-(tetrahydro-2H-pyran-4-yl)propan-2-yl)amino)pyrimidine-2,4(1H,3H)-dione], the figure is 1000 to 15000 nM.
On the same count and under the same terms, for `CC(C)n1c(=O)cc(NCCC2CCOCC2)[nH]c1=O` [Compound 13, 3-isopropyl-6-((2-(tetrahydro-2H-pyran-4-yl)ethyl)amino) pyrimidine-2,4(1H,3H)-dione] the value was greater than 15000 nM; for `CC(C)n1c(=O)cc(NCC2CCCCC2)[nH]c1=O` [Compound 1, 6-((cyclohexylmethyl)amino)-3-isopropylpyrimidine-2,4(1H,3H)-dione], 1000 to 15000 nM.
As to `CC(C)n1c(=O)cc(N[C@@H](C)CC2CCC(F)(F)CC2)[nH]c1=O` [Compound 3, (S)-6-((1-(4,4-Difluorocyclohexyl)propan-2-yl)amino)-3-isopropylpyrimidine-2,4(1H,3H)-dione], the IC50 is less than 1000 nM.
The same measure, in the same setting: as for `CC(C)n1c(=O)cc(N[C@@H](C)C2CCCCC2)[nH]c1=O` [Compound 6, (S)-6-((1-cyclohexylethyl)amino)-3-isopropylpyrimidine-2,4(1H,3H)-dione], the figure is less than 1000 nM.
Turning to `C[C@H](Nc1cc(=O)n(C2CCOCC2)c(=O)[nH]1)C1CCC(F)(F)CC1` [Compound 4, (S)-6-((1-(4,4-difluorocyclohexyl)ethyl)amino)-3-(tetrahydro-2H-pyran-4-yl)pyrimidine-2,4(1H,3H)-dione], the IC50 fell in the range of 1000 to 15000 nM.

The next test concerns adult rat ventricular myocytes. Put plainly: Cardiomyocyte contractility assay (fractional shortening, IonOptix edge detection). The format is cell-based. The conditions noted are these: Ventricular myocyte, 0.3 uM compound, 1 Hz pacing. As to the method:
Contractility of adult rat ventricular myocytes is determined by edge detection with an IonOptix contractility system. Aliquots of myocytes in Tyrode buffer (137 mM NaCl, 3.7 mM KCl, 0.5 mM MgCl2, 1.5 mM CaCl2, 4 mM HEPES, 11 mM glucose) are placed in a perfusion chamber (Series 20 RC-27NE; Warner Instruments), allowed to adhere to the coverslip, and then perfused with 37° C. Tyrode buffer. Myocytes are filed stimulated at 1 Hz and 10V. Only myocytes with clear striations, quiescent prior to pacing, with a cell length of 120-180 microns, a basal fractional shortening equal to 3-8% of the cell length, and a contraction velocity greater than 100 microns per second are used for contractility experiments. To determine the response to compounds, myocytes are first perfused for 60 seconds with Tyrodes buffer followed by 5 minutes of compound and a 140 second washout with Tyrodes buffer. Data is continuously recorded using IonOptix software. Contractility data is analyzed using lonwizard software (IonOptix). For each cell, 10-20 contractility transients were averaged and compared under basal (no compound) and compound-treated conditions. Compound activity is measured by effects on fractional shortening (FS), where fractional shortening is the ratio of the peak length of the cell at contraction divided by the basal cell length normalized to 100% for an untreated cell.
With `CC(C)n1c(=O)cc(N[C@@H](C)CC2CCC(F)(F)CC2)[nH]c1=O` [Compound 3, (S)-6-((1-(4,4-Difluorocyclohexyl)propan-2-yl)amino)-3-isopropylpyrimidine-2,4(1H,3H)-dione], the inhibition at 0.3 µM is greater than 66%.

The same test, now with this note: Ventricular myocyte, 1.0 uM compound, 1 Hz pacing.
Take `CC(C)n1c(=O)cc(N[C@@H](C)C2CCC(F)(F)CC2)[nH]c1=O` [Compound 9, (S)-6-((1-(4,4-difluorocyclohexyl)ethyl)amino)-3-isopropylpyrimidine-2,4(1H,3H)-dione]: the inhibition at 1 µM is greater than 66%.
On the same count and under the same terms, for `CC(C)n1c(=O)[nH]c(N[C@@H](C)C2CCC(F)(F)CC2)c(F)c1=O` [Compound 5, (S)-6-((1-(4,4-difluorocyclohexyl)ethyl)amino)-5-fluoro-3-isopropylpyrimidine-2,4(1H,3H)-dione] the value was 33 to 66%.
